Assay results reported in ChEMBL document CHEMBL1139278 (2009).
≈ marks a conversion by molar mass, not a printed value.

Assays:
Type in all cases: functional
Staphylococcus aureus [1] = test: Antimicrobial activity against methicillin-resistant Staphylococcus aureus KMP9
Haemophilus influenzae = test: Antimicrobial activity against Haemophilus influenzae TH13 by NCCLS method
Staphylococcus aureus [2] = test: Antimicrobial activity against methicillin-susceptible Staphylococcus aureus infected iv dosed mouse assessed as survival rate after 1 hr of infection
Streptococcus pneumoniae [3] = test: Antimicrobial activity against penicillin-resistant Streptococcus pneumoniae KT2524 by NCCLS method
Moraxella catarrhalis = test: Antimicrobial activity against Moraxella catarrhalis K1209 by NCCLS method
Streptococcus pneumoniae [4] = test: Antimicrobial activity against penicillin-susceptible Streptococcus pneumoniae ATCC 49619 by NCCLS method
Staphylococcus aureus [5] = test: Antimicrobial activity against methicillin-susceptible Staphylococcus aureus Smith by NCCLS method
Enterococcus faecium = test: Antimicrobial activity against vancomycin-resistant Enterococcus faecium KU1778 by NCCLS method
Streptococcus pyogenes = test: Antimicrobial activity against Streptococcus pyogenes ATCC 112344 by NCCLS method

SMILES | MIC (Staphylococcus aureus [1]) [µg/mL] | MIC (Haemophilus influenzae) [µg/mL] | ED50 (Staphylococcus aureus [2]) [mg/kg] | MIC (Streptococcus pneumoniae [3]) [µg/mL] | MIC (Moraxella catarrhalis) [µg/mL] | MIC (Streptococcus pneumoniae [4]) [µg/mL] | MIC (Staphylococcus aureus [5]) [µg/mL] | MIC (Enterococcus faecium) [µg/mL] | MIC (Streptococcus pyogenes) [µg/mL]
C=C[C@]1(C)C[C@@H](OC(=O)CN2CCN(C(=O)CCn3cnc4c(N5CCC(N)C5)ncnc43)CC2)[C@]2(C)[C@H](C)CC[C@]3(CCC(=O)[C@@H]32)[C@@H](C)[C@@H]1O.Cl.Cl (stereo not given in full) | 1 | 4 | 0.8 | 0.063 | 0.25 | 0.063 | 0.25 | 0.5 | 0.032
C=C[C@]1(C)C[C@@H](OC(=O)CN2CCN(C(=O)CCn3cnc4c(N5CC[C@@H](CNC)C5)ncnc43)CC2)[C@]2(C)[C@H](C)CC[C@]3(CCC(=O)[C@@H]32)[C@@H](C)[C@@H]1O.Cl.Cl | 2 | 2 | 1.18 | 0.125 | 0.125 | 0.125 | 0.25 | 0.5 | 0.063
C=C[C@]1(C)C[C@@H](OC(=O)CN2CCN(C(=O)CCn3cnc4c(N5CCC(N)CC5)ncnc43)CC2)[C@]2(C)[C@H](C)CC[C@]3(CCC(=O)[C@@H]32)[C@@H](C)[C@@H]1O.Cl.Cl | 1 | 2 | 0.97 | 0.125 | 0.125 | 0.125 | 0.25 | 0.25 | 0.032
C=C[C@]1(C)C[C@@H](OC(=O)CN2CCN(C(=O)CCn3cnc4c(N5CCC(CN)CC5)ncnc43)CC2)[C@]2(C)[C@H](C)CC[C@]3(CCC(=O)[C@@H]32)[C@@H](C)[C@@H]1O.Cl.Cl | 1 | 2 | 1.51 | 0.125 | 0.125 | 0.125 | 0.25 | 0.25 | 0.032
C=C[C@]1(C)C[C@@H](OC(=O)CN2CCN(C(=O)CCn3cnc4c(N5CCC(N)C5)ncnc43)[C@@H](C)C2)[C@]2(C)[C@H](C)CC[C@]3(CCC(=O)[C@@H]32)[C@@H](C)[C@@H]1O.Cl.Cl (stereo not given in full) | 0.25 | 2 | 1.47 | 0.063 | 0.125 | 0.032 | 0.125 | 0.125 | 0.032
C=C[C@]1(C)C[C@@H](OC(=O)CN2CCN(C(=O)CCn3cnc4c(N5CCC(N(C)C)C5)ncnc43)CC2)[C@]2(C)[C@H](C)CC[C@]3(CCC(=O)[C@@H]32)[C@@H](C)[C@@H]1O.Cl.Cl (stereo not given in full) | 0.25 | 4 | 2.94 | 0.063 | 0.125 | 0.125 | 0.25 | 0.125 | 0.063
C=C[C@]1(C)C[C@@H](OC(=O)CN2CCN(C(=O)CCn3cnc4c(N5CCNCC5)ncnc43)CC2)[C@]2(C)[C@H](C)CC[C@]3(CCC(=O)[C@@H]32)[C@@H](C)[C@@H]1O.Cl.Cl | 0.25 | 2 | 1.65 | 0.063 | 0.063 | 0.063 | 0.125 | 0.063 | 0.032
C=C[C@]1(C)C[C@@H](OC(=O)CN2CCN(C(=O)CCn3cnc4c(N5CCC(N)C5)ncnc43)[C@H](C)C2)[C@]2(C)[C@H](C)CC[C@]3(CCC(=O)[C@@H]32)[C@@H](C)[C@@H]1O.Cl.Cl (stereo not given in full) | 0.5 | 8 | 2.21 | 0.125 | 0.25 | 0.125 | 0.25 | 0.25 | 0.063
C=C[C@]1(C)C[C@@H](OC(=O)CN2CCN(C(=O)CCn3cnc4c(N5CC[C@H](N)C5)ncnc43)[C@@H](C)C2)[C@]2(C)[C@H](C)CC[C@]3(CCC(=O)[C@@H]32)[C@@H](C)[C@@H]1O.Cl.Cl | 0.5 | 4 | 1.1 | 0.032 | 0.125 | 0.032 | 0.25 | 0.125 | 0.016
C=C[C@]1(C)C[C@@H](OC(=O)CN2CCN(C(=O)CCn3cnc4c(N5CCC(NCC)C5)ncnc43)CC2)[C@]2(C)[C@H](C)CC[C@]3(CCC(=O)[C@@H]32)[C@@H](C)[C@@H]1O.Cl.Cl (stereo not given in full) | 0.5 | 4 | 2.21 | 0.125 | 0.125 | 0.125 | 0.25 | 0.25 | 0.063
C=C[C@]1(C)C[C@@H](OC(=O)CN2CCN(C(=O)CCn3cnc4c(N5CCC(CN)C5)ncnc43)CC2)[C@]2(C)[C@H](C)CC[C@]3(CCC(=O)[C@@H]32)[C@@H](C)[C@@H]1O.Cl.Cl (stereo not given in full) | 2 | 4 | 1.21 | 0.125 | 0.5 | 0.063 | 0.25 | 1 | 0.032
C=C[C@]1(C)C[C@@H](OC(=O)CN2CCCN(C(=O)CCn3cnc4c(N5CCC(N)C5)ncnc43)CC2)[C@]2(C)[C@H](C)CC[C@]3(CCC(=O)[C@@H]32)[C@@H](C)[C@@H]1O.Cl.Cl (stereo not given in full) | 1 | 4 | 2.51 | 0.063 | 0.25 | 0.063 | 0.5 | 0.25 | 0.032
C=C[C@]1(C)C[C@@H](OC(=O)CN2CCN(C(=O)CCn3cnc4c(N5CC[C@H](CNC)C5)ncnc43)CC2)[C@]2(C)[C@H](C)CC[C@]3(CCC(=O)[C@@H]32)[C@@H](C)[C@@H]1O.Cl.Cl | 2 | 0.5 | 0.83 | 0.063 | 0.125 | 0.125 | 0.25 | 0.5 | 0.032
C=C[C@]1(C)C[C@@H](OC(=O)CN2CCN(C(=O)CCn3cnc4c(N5CCC(CNC)C5)ncnc43)CC2)[C@]2(C)[C@H](C)CC[C@]3(CCC(=O)[C@@H]32)[C@@H](C)[C@@H]1O.Cl.Cl (stereo not given in full) | 2 | 4 | 1.1 | 0.125 | 0.5 | 0.125 | 0.25 | 1 | 0.032
C=C[C@]1(C)C[C@@H](OC(=O)CN2CCN(C(=O)CCn3cnc4c(N5CCC(N)C5)ncnc43)C(C)C2)[C@]2(C)[C@H](C)CC[C@]3(CCC(=O)[C@@H]32)[C@@H](C)[C@@H]1O.Cl.Cl (stereo not given in full) | 0.25 | 2 | 1.39 | 0.032 | 0.125 | 0.032 | 0.25 | 0.125 | 0.032
C=C[C@]1(C)C[C@@H](OC(=O)CN2CCN(C(=O)CCn3cnc4c(N5CCC(NC)C5)ncnc43)CC2)[C@]2(C)[C@H](C)CC[C@]3(CCC(=O)[C@@H]32)[C@@H](C)[C@@H]1O.Cl (stereo not given in full) | 1 | 4 | 1.3 | 0.125 | 0.25 | 0.063 | 0.25 | 0.25 | 0.032
CN[C@H](CC(C)C)C(=O)N[C@H]1C(=O)N[C@@H](CC(N)=O)C(=O)N[C@H]2C(=O)N[C@H]3C(=O)N[C@H](C(=O)N[C@H](C(=O)O)c4cc(O)cc(O)c4-c4cc3ccc4O)[C@H](O)c3ccc(c(Cl)c3)Oc3cc2cc(c3O[C@@H]2O[C@H](CO)[C@@H](O)[C@H](O)[C@H]2O[C@H]2C[C@](C)(N)[C@H](O)[C@H](C)O2)Oc2ccc(cc2Cl)[C@H]1O [VANCOMYCIN] | – | > 128 | 0.88 | 0.5 (≈ 0.345 µM) | 64 (≈ 44.2 µM) | 0.25 (≈ 0.173 µM) | – | > 128 | –
